Experimental data taken from patent US20250186436A1 (4E Therapeutics, Inc., priority 2021, published 2025).
Several values for one entry are separate records, joined by “and”; a condition that tells them apart may be missing. Equal values may be shown once. Read-outs that look alike come from different tables or passages of the source.

Tests used:
[1] = target: T1, recombinant full-length human kinase MNK1 (Homo sapiens, UniProt Q9BUB5); assay: MNK1 radiometric kinase activity assay; format: biochemical; conditions: radiometric activity assay; read-out: MNK1
T1 construct: the recombinant full-length human kinase MNK1; made in house; host or cells: insect cells

[2] = Plasma and brain concentrations, brain to plasma ratio 24 hr after last of five 10 mg/kg PO doses (Example 7); format: in vivo; conditions: rats, 24 hr after the last of five 10 mg/kg PO doses; for concentration at 24 h: oral, 10 mg/kg
Source text: Table 21 provides plasma and brain concentrations at 24 hr after the last dose of five daily P0 doses of 4ET-03-053.

[3] = PK study in male Sprague-Dawley rats dosed once per day for five days, PO 25 mg/kg, 0.5% HPMC (Example 8); format: in vivo; conditions: 0.5% HPMC suspension
Description: Example 8. PK study of 4ET-03-053 in male Sprague-Dawley rats dosed once per day for five days (P0; 25 mg/kg; 0.5HPMC aqueous suspension)
Table 24 provides plasma and brain concentrations at 24 hr after the last dose of five daily PO doses of 4ET-03-053.

[4] = day five of daily PO 25 mg/kg, individual animals, 25 mg/kg
[5] = day five of daily PO 25 mg/kg, mean (n = 3)
[6] = male, Sprague-Dawley, rat, in vivo, po, 25 mg/kg, day five of daily PO 25 mg/kg, individual animals
[7] = male, Sprague-Dawley, rat, in vivo, po, 25 mg/kg, day five of daily PO 25 mg/kg, mean (n = 3)
[8] = male, Sprague-Dawley, rat, in vivo, po, 25 mg/kg, single PO 25 mg/kg dose, individual animals
[9] = male, Sprague-Dawley, rat, in vivo, po, 25 mg/kg, single PO 25 mg/kg dose, mean (n = 3)
[10] = single PO 25 mg/kg dose, individual animals, 25 mg/kg
[11] = single PO 25 mg/kg dose, mean (n = 3)

T1 sequence (Q9BUB5 whole entry): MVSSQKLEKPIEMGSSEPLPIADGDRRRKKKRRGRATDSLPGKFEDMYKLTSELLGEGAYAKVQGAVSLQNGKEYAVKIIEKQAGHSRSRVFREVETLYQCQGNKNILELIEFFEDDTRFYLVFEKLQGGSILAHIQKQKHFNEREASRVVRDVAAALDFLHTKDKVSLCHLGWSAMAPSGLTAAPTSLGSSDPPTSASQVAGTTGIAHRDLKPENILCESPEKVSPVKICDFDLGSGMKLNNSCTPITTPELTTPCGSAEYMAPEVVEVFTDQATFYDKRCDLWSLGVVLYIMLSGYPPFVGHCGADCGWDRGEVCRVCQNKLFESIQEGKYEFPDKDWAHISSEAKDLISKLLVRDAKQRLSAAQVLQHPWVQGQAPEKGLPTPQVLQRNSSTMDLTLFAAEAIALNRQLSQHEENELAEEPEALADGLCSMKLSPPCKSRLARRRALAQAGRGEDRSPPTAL

For `Cc1cc(Nc2cc(N)ncn2)c(=O)n2c1C(=O)NC21CCC2(CC2)CC1` [4ET-03-053, 6″-((6-Aminopyrimidin-4-yl)amino)-8″-methyl-2″H-dispiro[cyclopropane-1,1′-cyclohexane-4′,3″-imidazo[1,5-a]pyridine]-1″,5″-dione], which IC50 [1] is on record?
Its IC50 is 215 nM.

What about the concentration at 24 h ([2]; male, Sprague-Dawley, rat, brain homogenate, brain homogenate, individual animals (n = 3), read-out: Tissue Homogenate Conc.) of the same molecule?
Its concentration at 24 h is 75.6 ng/mL.

And the concentration at 24 h ([2]; male, Sprague-Dawley, rat, brain homogenate, brain homogenate, mean, read-out: Tissue Homogenate Conc., Mean)?
The concentration at 24 h was 85.6 ng/mL.

What about the concentration at 24 h ([2]; male, Sprague-Dawley, rat, brain, brain, read-out: Mean Tissue) of the same molecule?
Its concentration at 24 h is 342 ng/g.

What about the concentration at 24 h ([2]; male, Sprague-Dawley, rat, plasma, plasma, individual animals (n = 3), read-out: Plasma Conc.) of the same molecule?
The concentration at 24 h was 2390 ng/mL.

And the concentration at 24 h ([2]; male, Sprague-Dawley, rat, plasma, plasma, mean, read-out: Plasma Conc., Mean)?
Its concentration at 24 h is 2670 ng/mL.

And the Kp at 24 h ([2]; male, Sprague-Dawley, rat, brain to plasma, read-out: Mean Tissue/Plasma Conc. Ratio)?
Its Kp at 24 h is 0.128.

What about the “Tissue Homogenate Conc.” value ([2]; brain homogenate, individual animals (n = 3)) of the same molecule?
Its value is 88.2 ng/mL and 93.0 ng/mL.

What about the “Plasma Conc.” value ([2]; plasma, individual animals (n = 3)) of the same molecule?
The value was 2740 ng/mL and 2880 ng/mL.

What about the “time to peak plasma concentration” value ([3]; after the last of five daily 25 mg/kg PO doses) of the same molecule?
Its value is ≤ 1 h.

And the AUCinf [3, 4]?
The AUCinf was 489.224 µg·h/mL and 471.587 µg·h/mL.

And the AUCinf/D [3, 4]?
Its AUCinf/D is 16316 kg·h/kL and 19569 kg·h/kL and 18863 kg·h/kL.

And the AUClast [3, 4]?
Its AUClast is 403.575 µg·h/mL and 371.995 µg·h/mL.

What about the Clast [3, 4] of the same molecule?
Its Clast is 5340 ng/mL and 6120 ng/mL.

What about the Cmax [3, 4] of the same molecule?
Its Cmax is 26800 ng/mL and 29900 ng/mL.

And the Cmax/D [3, 4]?
Its Cmax/D is 1184 kg/kL and 1072 kg/kL and 1196 kg/kL.

And the F [3, 4]?
The F was 31.7% and 38.0% and 36.6%.

What about the MRTinf [3, 4] of the same molecule?
The MRTinf was 13.2 h and 14.8 h.

What about the t1/2 [3, 4] of the same molecule?
Its t1/2 is 10.7 h and 9.67 h.

And the AUCinf/D [3, 5]?
Its AUCinf/D is 18250 kg·h/kL.

And the Cmax/D [3, 5]?
Its Cmax/D is 1151 kg/kL.

What about the F [3, 5] of the same molecule?
Its F is 35.5%.

And the concentration at 24 h ([3]; male, Sprague-Dawley, rat, in vivo, po, 25 mg/kg, after the last of five daily 25 mg/kg PO doses, at 24 hr, read-out: last measurable concentration)?
The concentration at 24 h was 5890 ng/mL.

And the Cmax ([3]; male, Sprague-Dawley, rat, in vivo, po, 25 mg/kg, after the last of five daily 25 mg/kg PO doses, read-out: peak plasma concentration (Cmax))?
Its Cmax is 28800 ng/mL.

What about the half-life ([3]; male, Sprague-Dawley, rat, in vivo, po, 25 mg/kg, after the last of five daily 25 mg/kg PO doses, read-out: terminal half-life (t1/2) (converted)) of the same molecule?
The half-life was 10.5 h.

And the AUC(0-inf) ([3]; male, Sprague-Dawley, rat, in vivo, po, 25 mg/kg, after the last of five daily 25 mg/kg PO doses, read-out: total systemic exposure (AUCinf))?
Its AUC(0-inf) is 456 µg·h/mL.

What about the AUC(0-t) [3, 6] of the same molecule?
The AUC(0-t) was 324 µg·h/mL.

And the MRT inf [3, 6]?
The MRT inf was 14.5 h.

What about the Tmax [3, 6] of the same molecule?
Its Tmax is 1 h.

And the AUC(0-inf) ([3]; male, Sprague-Dawley, rat, in vivo, po, 25 mg/kg, day five of daily PO 25 mg/kg, individual animals, read-out: AUCinf)?
Its AUC(0-inf) is 408 µg·h/mL.

What about the concentration at 24 h ([3]; male, Sprague-Dawley, rat, in vivo, po, 25 mg/kg, day five of daily PO 25 mg/kg, individual animals, read-out: Clast) of the same molecule?
Its concentration at 24 h is 6220 ng/mL.

And the Cmax ([3]; male, Sprague-Dawley, rat, in vivo, po, 25 mg/kg, day five of daily PO 25 mg/kg, individual animals, read-out: Cmax)?
The Cmax was 29600 ng/mL.

What about the half-life ([3]; male, Sprague-Dawley, rat, in vivo, po, 25 mg/kg, day five of daily PO 25 mg/kg, individual animals, read-out: t1/2 (converted)) of the same molecule?
Its half-life is 11 h.

And the AUC(0-t) [3, 7]?
Its AUC(0-t) is 367 µg·h/mL.

What about the MRT inf [3, 7] of the same molecule?
The MRT inf was 14.1 h.

What about the Tmax [3, 7] of the same molecule?
The Tmax was 1 h.

What about the AUC(0-inf) ([3]; male, Sprague-Dawley, rat, in vivo, po, 25 mg/kg, day five of daily PO 25 mg/kg, mean (n = 3), read-out: AUCinf) of the same molecule?
Its AUC(0-inf) is 456 µg·h/mL.

What about the concentration at 24 h ([3]; male, Sprague-Dawley, rat, in vivo, po, 25 mg/kg, day five of daily PO 25 mg/kg, mean (n = 3), read-out: Clast) of the same molecule?
The concentration at 24 h was 5890 ng/mL.

What about the Cmax ([3]; male, Sprague-Dawley, rat, in vivo, po, 25 mg/kg, day five of daily PO 25 mg/kg, mean (n = 3), read-out: Cmax) of the same molecule?
The Cmax was 28800 ng/mL.

And the half-life ([3]; male, Sprague-Dawley, rat, in vivo, po, 25 mg/kg, day five of daily PO 25 mg/kg, mean (n = 3), read-out: t1/2 (converted))?
Its half-life is 10.5 h.

What about the AUC(0-t) [3, 8] of the same molecule?
Its AUC(0-t) is 288 µg·h/mL.

What about the MRT inf [3, 8] of the same molecule?
Its MRT inf is 9.26 h.

And the Tmax [3, 8]?
The Tmax was 1 h.

What about the AUC(0-inf) ([3]; male, Sprague-Dawley, rat, in vivo, po, 25 mg/kg, single PO 25 mg/kg dose, individual animals, read-out: AUCinf) of the same molecule?
The AUC(0-inf) was 315 µg·h/mL.

What about the concentration at 24 h ([3]; male, Sprague-Dawley, rat, in vivo, po, 25 mg/kg, single PO 25 mg/kg dose, individual animals, read-out: Clast) of the same molecule?
The concentration at 24 h was 3130 ng/mL.

What about the Cmax ([3]; male, Sprague-Dawley, rat, in vivo, po, 25 mg/kg, single PO 25 mg/kg dose, individual animals, read-out: Cmax) of the same molecule?
The Cmax was 24400 ng/mL.

What about the AUC(0-t) [3, 9] of the same molecule?
Its AUC(0-t) is 312 µg·h/mL.

And the MRT inf [3, 9]?
The MRT inf was 9.25 h.

And the Tmax [3, 9]?
The Tmax was 1.33 h.

And the AUC(0-inf) ([3]; male, Sprague-Dawley, rat, in vivo, po, 25 mg/kg, single PO 25 mg/kg dose, mean (n = 3), read-out: AUCinf)?
Its AUC(0-inf) is 341 µg·h/mL.

And the Cmax ([3]; male, Sprague-Dawley, rat, in vivo, po, 25 mg/kg, single PO 25 mg/kg dose, mean (n = 3), read-out: Cmax)?
The Cmax was 25900 ng/mL.

And the half-life ([3]; male, Sprague-Dawley, rat, in vivo, po, 25 mg/kg, single PO 25 mg/kg dose, mean (n = 3), read-out: t1/2 (converted))?
The half-life was 6.82 h.

And the Cmax ([3]; male, Sprague-Dawley, rat, in vivo, po, 25 mg/kg, single PO 25 mg/kg, read-out: peak plasma concentration (Cmax))?
Its Cmax is 25900 ng/mL.

And the half-life ([3]; male, Sprague-Dawley, rat, in vivo, po, 25 mg/kg, single PO 25 mg/kg, read-out: terminal half-life (t1/2) (converted))?
Its half-life is 6.82 h.

And the AUC(0-inf) ([3]; male, Sprague-Dawley, rat, in vivo, po, 25 mg/kg, single PO 25 mg/kg, read-out: total systemic exposure (AUCinf))?
Its AUC(0-inf) is 341 µg·h/mL.

What about the bioavailability ([3]; male, rat, in vivo, after the last of five daily 25 mg/kg PO doses) of the same molecule?
The bioavailability was 35.5%.

And the AUCinf [3, 10]?
The AUCinf was 363.793 µg·h/mL and 345.084 µg·h/mL.

And the AUCinf/D [3, 10]?
The AUCinf/D was 12599 kg·h/kL and 14552 kg·h/kL and 13803 kg·h/kL.

What about the AUClast [3, 10] of the same molecule?
The AUClast was 336.46 µg·h/mL and 313.078 µg·h/mL.

And the Clast [3, 10]?
The Clast was 2660 ng/mL and 2870 ng/mL.

What about the Cmax/D [3, 10] of the same molecule?
The Cmax/D was 976 kg/kL and 984 kg/kL and 1152 kg/kL.

What about the F [3, 10] of the same molecule?
The F was 24.5% and 28.3% and 26.8%.

What about the MRTinf [3, 10] of the same molecule?
The MRTinf was 8.89 h and 9.60 h.

And the t1/2 [3, 10]?
Its t1/2 is 6.94 h and 6.50 h.

What about the AUCinf/D [3, 11] of the same molecule?
Its AUCinf/D is 13651 kg·h/kL.

What about the Cmax/D [3, 11] of the same molecule?
The Cmax/D was 1037 kg/kL.
